The molecules below were run on E. coli (assay: bore-well method (zone of inhibition)). Conditions: standard antibiotics available in the market.
Format: cell-based

Going from `CC1(C)S[C@@H]2[C@H](NC(=O)[C@H](N)c3ccccc3)C(=O)N2[C@H]1C(=O)O` [Ampicillin] to `CC[C@H]1OC(=O)[C@H](C)[C@@H](O[C@H]2C[C@@](C)(OC)[C@@H](O)[C@H](C)O2)[C@H](C)[C@@H](O[C@@H]2O[C@H](C)C[C@H](N(C)C)[C@H]2O)[C@](C)(O)C[C@@H](C)C(=O)[C@H](C)[C@@H](O)[C@]1(C)O` [Erythromycin], the “Zone of Inhibition, Antibiotic” value falls from 14 mm to 10 mm.

Compared with `NC[C@H]1O[C@H](O[C@H]2[C@H](O)[C@@H](O[C@H]3O[C@H](CO)[C@@H](O)[C@H](N)[C@H]3O)[C@H](N)C[C@@H]2N)[C@H](O)[C@@H](O)[C@@H]1O` [Kanamycin], `O=C(N[C@H](CO)[C@H](O)c1ccc([N+](=O)[O-])cc1)C(Cl)Cl` [Chloromphenilcol] is higher in “Zone of Inhibition, Antibiotic” value: 30 mm for the first, 35 mm for the second.

`CN(C)[C@@H]1C(O)=C(C(N)=O)C(=O)[C@@]2(O)C(O)=C3C(=O)c4c(O)cccc4[C@@](C)(O)[C@H]3C[C@@H]12` [Tetracycline] and Gentamycin are the same in “Zone of Inhibition, Antibiotic” value: 24 mm for the first, 24 mm for the second.
